Experimental data as given in the kinase profiling compilation of Christmann-Franck et al. (2016).

Columns and labels:
Assay in all cases: split-luciferase competition binding
PDPK1 (human) = PDPK1 (human) (UniProt O15530); settings: compound 10.0 µM
AKT2 (human) = AKT2 (human) (UniProt P31751); settings: compound 10.0 µM
DMPK (human) = DMPK (human) (UniProt Q09013); settings: compound 10.0 µM
RPS6KA3 KD1 (human) = RPS6KA3 KD1 (human) (UniProt P51812); settings: compound 10.0 µM
SGK3 (human) = SGK3 (human) (UniProt Q96BR1); settings: compound 10.0 µM
RPS6KA1 KD1 (human) = RPS6KA1 KD1 (human) (UniProt Q15418); settings: compound 10.0 µM
AURKB (human) = AURKB (human) (UniProt Q96GD4); settings: compound 10.0 µM
RPS6KA6 KD1 (human) = RPS6KA6 KD1 (human) (UniProt Q9UK32); settings: compound 10.0 µM
AURKA (human) = AURKA (human) (UniProt O14965); settings: compound 10.0 µM
RPS6KA2 KD1 (human) = RPS6KA2 KD1 (human) (UniProt Q15349); settings: compound 10.0 µM
PRKCG (human) = PRKCG (human) (UniProt P05129); settings: compound 10.0 µM
AURKC (human) = AURKC (human) (UniProt Q9UQB9); settings: compound 10.0 µM
PRKCD (human) = PRKCD (human) (UniProt Q05655); settings: compound 10.0 µM
RPS6KA5 KD1 (human) = RPS6KA5 KD1 (human) (UniProt O75582); settings: compound 10.0 µM
SGK2 (human) = SGK2 (human) (UniProt Q9HBY8); settings: compound 10.0 µM
PRKCI (human) = PRKCI (human) (UniProt P41743); settings: compound 10.0 µM
PRKCH (human) = PRKCH (human) (UniProt P24723); settings: compound 10.0 µM
PKN1 (human) = PKN1 (human) (UniProt Q16512); settings: compound 10.0 µM
PRKACA (mouse) = settings: compound 10.0 µM; accession and sequence are those of the human protein
AKT3 (human) = AKT3 (human) (UniProt Q9Y243); settings: compound 10.0 µM
STK32B (human) = STK32B (human) (UniProt Q9NY57); settings: compound 10.0 µM
PRKX (human) = PRKX (human) (UniProt P51817); settings: compound 10.0 µM
PRKCQ (human) = PRKCQ (human) (UniProt Q04759); settings: compound 10.0 µM
RPS6KA4 KD1 (human) = RPS6KA4 KD1 (human) (UniProt O75676); settings: compound 10.0 µM
AKT1 (human) = AKT1 (human) (UniProt P31749); settings: compound 10.0 µM
PRKCE (human) = PRKCE (human) (UniProt Q02156); settings: compound 10.0 µM
PRKACB (human) = PRKACB (human) (UniProt P22694); settings: compound 10.0 µM

Chain of STK32B (human) (Q9NY57 whole entry, looked up): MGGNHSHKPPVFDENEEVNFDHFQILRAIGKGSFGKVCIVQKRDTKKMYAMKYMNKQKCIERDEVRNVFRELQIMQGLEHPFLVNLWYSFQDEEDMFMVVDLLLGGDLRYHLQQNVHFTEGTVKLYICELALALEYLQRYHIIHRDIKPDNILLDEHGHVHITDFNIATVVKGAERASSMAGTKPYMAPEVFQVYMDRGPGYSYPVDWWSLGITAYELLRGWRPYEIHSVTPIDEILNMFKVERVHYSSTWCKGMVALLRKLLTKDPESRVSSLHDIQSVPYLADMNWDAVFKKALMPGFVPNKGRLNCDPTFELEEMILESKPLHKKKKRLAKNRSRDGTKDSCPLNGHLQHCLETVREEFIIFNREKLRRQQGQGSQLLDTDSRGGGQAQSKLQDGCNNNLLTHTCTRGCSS
Chain of PRKCQ (human) (Q04759 whole entry, looked up): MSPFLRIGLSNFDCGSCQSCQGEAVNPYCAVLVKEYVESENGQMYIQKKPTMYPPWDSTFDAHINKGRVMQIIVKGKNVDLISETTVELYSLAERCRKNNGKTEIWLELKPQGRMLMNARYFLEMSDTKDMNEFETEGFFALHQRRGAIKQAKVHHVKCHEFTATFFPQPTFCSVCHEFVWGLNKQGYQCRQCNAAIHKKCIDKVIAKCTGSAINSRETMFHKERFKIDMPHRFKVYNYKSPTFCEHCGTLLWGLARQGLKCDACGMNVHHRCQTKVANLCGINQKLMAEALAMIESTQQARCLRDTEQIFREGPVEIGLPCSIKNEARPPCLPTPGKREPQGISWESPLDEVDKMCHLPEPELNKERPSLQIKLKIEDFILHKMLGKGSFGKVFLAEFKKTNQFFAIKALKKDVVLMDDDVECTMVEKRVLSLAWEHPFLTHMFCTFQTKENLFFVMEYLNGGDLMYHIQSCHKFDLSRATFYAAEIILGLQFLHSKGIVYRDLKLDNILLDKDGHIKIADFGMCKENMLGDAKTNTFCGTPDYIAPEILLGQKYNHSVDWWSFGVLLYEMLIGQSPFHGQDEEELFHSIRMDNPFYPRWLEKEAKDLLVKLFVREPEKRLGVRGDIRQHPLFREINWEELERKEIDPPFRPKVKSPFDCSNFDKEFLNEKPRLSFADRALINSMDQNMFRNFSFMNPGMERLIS
Chain of SGK3 (human) (Q96BR1 whole entry, looked up): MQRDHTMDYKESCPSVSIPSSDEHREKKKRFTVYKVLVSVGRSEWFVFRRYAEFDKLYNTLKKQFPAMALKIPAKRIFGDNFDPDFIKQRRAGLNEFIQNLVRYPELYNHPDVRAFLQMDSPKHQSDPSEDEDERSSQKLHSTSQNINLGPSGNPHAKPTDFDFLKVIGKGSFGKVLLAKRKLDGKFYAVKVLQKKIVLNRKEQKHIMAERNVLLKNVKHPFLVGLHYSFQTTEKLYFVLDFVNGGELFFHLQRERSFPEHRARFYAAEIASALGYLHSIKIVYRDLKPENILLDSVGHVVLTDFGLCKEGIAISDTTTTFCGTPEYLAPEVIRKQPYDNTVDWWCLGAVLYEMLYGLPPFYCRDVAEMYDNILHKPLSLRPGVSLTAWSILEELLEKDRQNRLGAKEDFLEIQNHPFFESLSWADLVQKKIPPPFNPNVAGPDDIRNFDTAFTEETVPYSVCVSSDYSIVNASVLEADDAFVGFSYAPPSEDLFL
Chain of RPS6KA2 KD1 (human) (Q15349 whole entry, looked up): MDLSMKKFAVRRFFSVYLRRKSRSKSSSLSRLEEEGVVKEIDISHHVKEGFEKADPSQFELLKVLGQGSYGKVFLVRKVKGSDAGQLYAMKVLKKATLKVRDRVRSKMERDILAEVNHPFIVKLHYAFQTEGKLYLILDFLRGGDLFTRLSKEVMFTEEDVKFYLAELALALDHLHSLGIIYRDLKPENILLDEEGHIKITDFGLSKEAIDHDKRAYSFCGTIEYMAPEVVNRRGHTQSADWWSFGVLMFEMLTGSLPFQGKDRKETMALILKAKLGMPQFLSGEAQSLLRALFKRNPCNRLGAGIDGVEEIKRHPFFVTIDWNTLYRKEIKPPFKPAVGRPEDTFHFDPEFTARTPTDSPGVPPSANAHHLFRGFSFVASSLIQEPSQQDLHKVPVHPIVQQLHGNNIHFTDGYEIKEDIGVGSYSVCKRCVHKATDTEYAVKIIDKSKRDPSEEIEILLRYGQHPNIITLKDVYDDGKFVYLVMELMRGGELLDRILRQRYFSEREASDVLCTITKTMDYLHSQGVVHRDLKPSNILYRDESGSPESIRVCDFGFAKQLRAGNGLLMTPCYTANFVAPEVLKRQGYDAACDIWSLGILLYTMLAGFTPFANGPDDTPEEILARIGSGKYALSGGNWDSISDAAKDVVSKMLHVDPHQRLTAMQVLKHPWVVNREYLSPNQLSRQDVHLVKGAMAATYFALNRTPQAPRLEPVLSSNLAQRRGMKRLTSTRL
Chain of AKT2 (human) (P31751 whole entry, looked up): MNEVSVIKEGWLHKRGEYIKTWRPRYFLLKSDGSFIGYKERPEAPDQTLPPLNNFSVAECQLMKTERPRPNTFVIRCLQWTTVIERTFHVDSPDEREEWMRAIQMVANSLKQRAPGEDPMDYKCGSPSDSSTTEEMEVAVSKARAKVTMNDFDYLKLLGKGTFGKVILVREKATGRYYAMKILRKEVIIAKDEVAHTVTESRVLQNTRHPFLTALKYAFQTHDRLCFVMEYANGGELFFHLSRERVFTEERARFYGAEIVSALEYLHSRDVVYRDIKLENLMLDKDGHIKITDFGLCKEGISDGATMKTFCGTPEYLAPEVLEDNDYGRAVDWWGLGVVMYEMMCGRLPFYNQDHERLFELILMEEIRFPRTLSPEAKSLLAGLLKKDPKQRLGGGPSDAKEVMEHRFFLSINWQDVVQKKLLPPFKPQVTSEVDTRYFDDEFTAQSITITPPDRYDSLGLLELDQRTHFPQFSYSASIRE
Chain of PKN1 (human) (Q16512 whole entry, looked up): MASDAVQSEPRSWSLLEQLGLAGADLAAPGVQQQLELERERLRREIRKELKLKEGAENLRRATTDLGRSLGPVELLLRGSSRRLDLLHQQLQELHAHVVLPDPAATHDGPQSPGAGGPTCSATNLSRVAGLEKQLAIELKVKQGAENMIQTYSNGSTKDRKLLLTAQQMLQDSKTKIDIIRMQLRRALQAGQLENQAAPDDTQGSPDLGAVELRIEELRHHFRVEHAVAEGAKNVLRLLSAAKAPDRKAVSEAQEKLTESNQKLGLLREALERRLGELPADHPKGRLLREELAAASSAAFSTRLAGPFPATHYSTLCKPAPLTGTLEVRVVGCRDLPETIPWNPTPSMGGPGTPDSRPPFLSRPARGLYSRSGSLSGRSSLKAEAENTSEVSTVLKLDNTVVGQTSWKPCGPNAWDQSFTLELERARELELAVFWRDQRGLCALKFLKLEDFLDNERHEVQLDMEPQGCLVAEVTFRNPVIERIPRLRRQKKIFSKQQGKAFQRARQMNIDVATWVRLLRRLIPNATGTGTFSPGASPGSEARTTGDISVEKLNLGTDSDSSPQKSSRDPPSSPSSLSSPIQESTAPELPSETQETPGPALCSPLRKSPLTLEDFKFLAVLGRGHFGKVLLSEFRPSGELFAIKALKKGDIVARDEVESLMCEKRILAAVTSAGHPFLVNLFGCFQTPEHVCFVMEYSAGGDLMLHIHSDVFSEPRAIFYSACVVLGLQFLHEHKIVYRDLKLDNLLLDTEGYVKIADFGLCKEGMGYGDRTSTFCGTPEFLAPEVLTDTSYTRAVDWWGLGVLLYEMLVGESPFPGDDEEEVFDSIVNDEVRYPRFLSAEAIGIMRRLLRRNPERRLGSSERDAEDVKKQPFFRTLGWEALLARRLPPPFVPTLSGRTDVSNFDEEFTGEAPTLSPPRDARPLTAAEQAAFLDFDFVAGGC
Chain of SGK2 (human) (Q9HBY8 whole entry, looked up): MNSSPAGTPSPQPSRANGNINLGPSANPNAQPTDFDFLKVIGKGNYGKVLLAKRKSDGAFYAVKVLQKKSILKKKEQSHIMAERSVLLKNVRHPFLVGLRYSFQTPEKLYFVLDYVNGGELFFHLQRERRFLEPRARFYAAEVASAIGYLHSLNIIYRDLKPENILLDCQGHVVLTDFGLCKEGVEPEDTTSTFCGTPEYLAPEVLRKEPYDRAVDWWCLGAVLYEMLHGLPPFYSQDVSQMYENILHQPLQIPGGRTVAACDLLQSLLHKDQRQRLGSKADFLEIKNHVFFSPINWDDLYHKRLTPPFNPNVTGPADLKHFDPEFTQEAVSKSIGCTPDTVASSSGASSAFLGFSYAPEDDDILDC
Chain of PRKCI (human) (P41743 whole entry, looked up): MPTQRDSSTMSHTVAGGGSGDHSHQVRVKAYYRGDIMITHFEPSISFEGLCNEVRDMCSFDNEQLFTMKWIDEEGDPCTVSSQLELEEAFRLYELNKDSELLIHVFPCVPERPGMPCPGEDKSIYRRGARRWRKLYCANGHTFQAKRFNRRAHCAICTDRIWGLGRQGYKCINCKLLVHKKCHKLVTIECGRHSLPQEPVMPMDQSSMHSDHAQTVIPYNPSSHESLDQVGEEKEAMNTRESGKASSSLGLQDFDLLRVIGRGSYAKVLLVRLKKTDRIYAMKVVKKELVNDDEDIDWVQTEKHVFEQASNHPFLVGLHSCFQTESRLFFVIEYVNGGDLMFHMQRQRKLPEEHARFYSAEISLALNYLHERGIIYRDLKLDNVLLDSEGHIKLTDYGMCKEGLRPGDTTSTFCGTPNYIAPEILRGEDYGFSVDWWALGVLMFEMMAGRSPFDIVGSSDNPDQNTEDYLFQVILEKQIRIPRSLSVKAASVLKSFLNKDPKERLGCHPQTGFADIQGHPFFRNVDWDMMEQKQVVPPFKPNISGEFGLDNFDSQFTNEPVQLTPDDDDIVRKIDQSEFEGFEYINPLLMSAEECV

| Compound | inhibition (PDPK1 (human)) [%] | inhibition (AKT2 (human)) [%] | inhibition (DMPK (human)) [%] | inhibition (RPS6KA3 KD1 (human)) [%] | inhibition (SGK3 (human)) [%] | inhibition (RPS6KA1 KD1 (human)) [%] | inhibition (AURKB (human)) [%] | inhibition (RPS6KA6 KD1 (human)) [%] | inhibition (AURKA (human)) [%] | inhibition (RPS6KA2 KD1 (human)) [%] | inhibition (PRKCG (human)) [%] | inhibition (AURKC (human)) [%] | inhibition (PRKCD (human)) [%] | inhibition (RPS6KA5 KD1 (human)) [%] | inhibition (SGK2 (human)) [%] | inhibition (PRKCI (human)) [%] | inhibition (PRKCH (human)) [%] | inhibition (PKN1 (human)) [%] | inhibition (PRKACA (mouse)) [%] | inhibition (AKT3 (human)) [%] | also measured |
| --- | --- | --- | --- | --- | --- | --- | --- | --- | --- | --- | --- | --- | --- | --- | --- | --- | --- | --- | --- | --- | --- |
| O=C(Nc1cc(C(F)(F)F)cc(C(F)(F)F)c1)c1cc(Cl)ccc1O | 0 | 0 | 3 | 0 | 1 | 1 | 9 | 0 | 0 | 0 | 6 | 0 | 0 | 0 | 0 | 0 | 8 | 0 | 0 | 0 | inhibition (STK32B (human)): 11%; inhibition (PRKX (human)): 4%; inhibition (PRKCQ (human)): 2%; inhibition (RPS6KA4 KD1 (human)): 0%; inhibition (AKT1 (human)): 0%; inhibition (PRKCE (human)): 11%; inhibition (PRKACB (human)): 1% |
| Nc1ccc(-c2cccc3c(=O)cc(N4CCOCC4)oc23)cc1 | 0 | 0 | 4 | 0 | 0 | 0 | 7 | 0 | 2 | 0 | 0 | 14 | 0 | 2 | 0 | 0 | 1 | 0 | 0 | 0 | inhibition (STK32B (human)): 0%; inhibition (PRKX (human)): 2%; inhibition (PRKCQ (human)): 0%; inhibition (RPS6KA4 KD1 (human)): 3%; inhibition (AKT1 (human)): 2%; inhibition (PRKCE (human)): 4%; inhibition (PRKACB (human)): 0% |
| O=S(=O)(c1cccc2c(Cl)cccc12)N1CCCNCC1 | 0 | 0 | 0 | 0 | 0 | 0 | 13 | 0 | 0 | 1 | 0 | 0 | 0 | 0 | 0 | 1 | 0 | 1 | 3 | 0 | inhibition (STK32B (human)): 0%; inhibition (PRKX (human)): 25%; inhibition (PRKCQ (human)): 0%; inhibition (RPS6KA4 KD1 (human)): 0%; inhibition (AKT1 (human)): 2%; inhibition (PRKCE (human)): 0%; inhibition (PRKACB (human)): 0% |
| Cn1cc(C2=C(c3ccc(Cl)cc3Cl)C(=O)NC2=O)c2ccccc21 | 0 | 0 | 8 | 0 | 0 | 21 | 0 | 0 | 3 | 1 | 2 | 0 | 5 | 0 | 0 | 11 | 0 | 0 | 5 | 0 | inhibition (STK32B (human)): 0%; inhibition (PRKX (human)): 1%; inhibition (PRKCQ (human)): 3%; inhibition (RPS6KA4 KD1 (human)): 0%; inhibition (AKT1 (human)): 3%; inhibition (PRKCE (human)): 3%; inhibition (PRKACB (human)): 8% |
| O=S(=O)(c1cccc2c(O)nccc12)N1CCCNCC1 | 0 | 0 | 0 | 0 | 0 | 0 | 14 | 0 | 0 | 0 | 0 | 5 | 0 | 0 | 0 | 37 | 0 | 6 | 19 | 0 | inhibition (STK32B (human)): 0%; inhibition (PRKX (human)): 53%; inhibition (PRKCQ (human)): 15%; inhibition (RPS6KA4 KD1 (human)): 0%; inhibition (AKT1 (human)): 0%; inhibition (PRKCE (human)): 0%; inhibition (PRKACB (human)): 0% |
